Like-named read-outs stand apart in the source and are kept apart here.
Experiments:
[1] = system: Vascular Endothelial Growth Factor (VEGF) production by human melanoma cell line RPMI-7951; test: VEGF ELISA, RPMI-7951; details: for VEGF / VEGF ELISA: RPMI-7951; for VEGF ELISA: DMSO control 3713; for activity at 5 µM / activity at 20 µM: Homo sapiens, RPMI-7951, 72 h, read-out: VEGF
Protocol: RPMI-795 1, MDA-MB-231 and MDA-MB-435 cell lines were cultured in MEM-alpha medium (GIBCO-BRL, Long Island, N.Y.) containing 10% fetal bovine serum (RPMI-7951, MDA-MB-231) or 5% FBS (MDA-MB-435) at 37° C. and under 5% CO2/95% air. […] The cells were cultured in 48 well plates in all of the experiments described.
A VEGF enzyme-linked immunosorbent assay (ELISA) was utilized to determine the effect of the compounds of the present invention on VEGF production of a variety of human cancer cell lines. For the VEGF assay, cells were plated at a concentration of 80,000 cells/well and cultured overnight. Compounds or vehicle (DMSO 0.1%) were then added and the plates were incubated for 72 hours. Supernatant was then collected from each well and frozen in a −80° C. freezer until needed. Cell viability was determined by Neutral Red Assay. VEGF ELISA Kit (R & D, Minneapolis, Minn.) was used to determine the amount of VEGF in the culture supernatants. The ELISA was carried out according to the manufacturer's procedure.

[2] = system: Vascular Endothelial Growth Factor (VEGF) production by human prostate cancer cell line DU-145; test: VEGF ELISA, DU-145; format: cell-based; details: for VEGF (% of DMSO): DMSO = 100%
[3] = system: Vascular Endothelial Growth Factor (VEGF) production by human prostate cancer cell line PC-3; test: VEGF ELISA, PC-3; format: cell-based; details: for VEGF (% of DMSO): DMSO = 100%
RPMI-7951 human melanoma = test: Neutral Red Assay, cell viability, RPMI-7951; details: for Cell Viability / Neutral Red Uptake, %: RPMI-7951; for Cell Viability: DMSO = 100; for Neutral Red Uptake, %: 72 hours; for viability at 5 µM / viability at 20 µM: Homo sapiens
[4] = system: Tissue Factor (TF) production by human melanoma cell line RPMI-7951; test: TF ELISA, RPMI-7951; format: cell-based
Protocol: IMUBIND Tissue Factor ELISA Kit (American Diagnostica Inc, Greenwich, Conn.) was used to determine TF concentration in each sample. The ELISA was carried out according to manufacturer's procedure.

[5] = Table 4, 20 μM, mean of triplicate and S.D.
[6] = Table 5, 5 μM, DMSO control 7054
[7] = Table 5, 20 μM, DMSO control 7054
[8] = 5 μM, DMSO control 4197 (EF-25: 1045)
[9] = 20 μM, mean of triplicate and S.D., DMSO 18760 ± 2633
[10] = 20 μM, mean of triplicate and S.D., DMSO 2103 ± 100
[11] = RPMI-7951, 72 h, read-out: Neutral Red Uptake, %
[12] = RPMI-7951, read-out: Cell Viability

With `COc1cc(CCC(=O)CC(=O)CCc2ccc(O)c(OC)c2)ccc1O` [Compound A232] the VEGF ([1]; 20 μM, DMSO = 100) was 40%, the VEGF ([2]; Table 4, 20 μM, DMSO = 100) was 135% and the VEGF [2, 5] was 25308 ± 4722 pg/mL. The VEGF ([3]; Table 4, 20 μM, DMSO = 100) was 93%, the VEGF [3, 5] was 1955 ± 437 pg/mL and the “Cell Viability” value (RPMI-7951 human melanoma; 20 μM) was 78%.
For `O=S(=O)(/C=C/c1ccccc1)/C=C/c1ccccc1` [EF12, 3,5-Bisbenzylidenesulfone], the VEGF ([1]; 20 μM, DMSO = 100) was 70% and the “Cell Viability” value (RPMI-7951 human melanoma; 20 μM) was 92%.
In the case of `COc1ccc(CCC(=O)CCc2ccc(OC)c(OC)c2)cc1OC` [MD279U, 1,5-Bis(3,4-dimethoxyphenyl)penta-3-one], the TF ([4]; 5 μM, DMSO = 100) is reported as 102%, the “TF ELISA” value ([4]; 5 μM, DMSO control 7054) is reported as 7200 pg/ml/well and the TF ([4]; 20 μM, DMSO = 100) is reported as 75%. The “TF ELISA” value ([4]; 20 μM, DMSO control 7054) was 5316 pg/ml/well, the TF [4, 6] was 7200 pg/mL and the TF [4, 7] was 5316 pg/mL. For the same compound, the VEGF ([1]; 5 μM, DMSO = 100) was 28%, the “VEGF ELISA” value ([1]; 5 μM) was 2511 pg/ml/well and the VEGF [1, 8] was 1197 pg/mL. The VEGF ([1]; 20 μM, DMSO = 100) was 18%, the “VEGF ELISA” value ([1]; 20 μM) was 779 pg/ml/well and the VEGF ([1]; 20 μM, DMSO control 4197) was 1179 pg/mL. For the same compound, the “Neutral Red Uptake, %” value (RPMI-7951 human melanoma; 5 μM) was 100 % of control, the “Cell Viability” value (RPMI-7951 human melanoma; 5 μM) was 112% and the “Neutral Red Uptake, %” value (RPMI-7951 human melanoma; 20 μM) was 100 % of control. For the same compound, the “Cell Viability” value (RPMI-7951 human melanoma; 20 μM) was 113%.
Work on `COc1ccc(CNS(=O)(=O)NCc2ccc(OC)c(OC)c2)cc1OC` [Compound A277a] yielded a VEGF ([2]; Table 4, 20 μM, DMSO = 100) of 146%, a VEGF [2, 5] of 27403 ± 3143 pg/mL and a VEGF ([3]; Table 4, 20 μM, DMSO = 100) of 95%. The VEGF [3, 5] was 2007 ± 30 pg/mL.
With `COc1ccc(CCC(O)CCc2ccc(OC)c(OC)c2)cc1OC` [B] the “VEGF (% of DMSO)” value ([2]; 20 μM) was “(82%)”, the VEGF [2, 9] was 15321 ± 5607 pg/mL and the VEGF ([2]; Table 4, 20 μM, DMSO = 100) was 82%. For the same compound, the VEGF [2, 5] was 15321 ± 5607 pg/mL, the “VEGF (% of DMSO)” value ([3]; 20 μM) was “(99%)” and the VEGF [3, 10] was 2168 ± 279 pg/mL. The VEGF ([3]; Table 4, 20 μM, DMSO = 100) was 103% and the VEGF [3, 5] was 2168 ± 279 pg/mL.
`COc1cc(CC2CCCC(Cc3ccc(O)c(OC)c3)C2O)ccc1O` (centres unmarked) [Compound A231L] gave a VEGF ([1]; 20 μM, DMSO = 100) of 25%, a VEGF ([2]; Table 4, 20 μM, DMSO = 100) of 149% and a VEGF [2, 5] of 27927 ± 4466 pg/mL. For the same compound, the VEGF ([3]; Table 4, 20 μM, DMSO = 100) was 80%, the VEGF [3, 5] was 1687 ± 250 pg/mL and the “Cell Viability” value (RPMI-7951 human melanoma; 20 μM) was 77%.
In the case of `CN(C)/N=N/c1[nH]cnc1C(N)=O` [Decabazine, Decarbazine, reference compound], the activity at 5 µM [1] is reported as 28%, the activity at 20 µM [1] is reported as 31% and the “VEGF ELISA” value ([1]; 5 μM) is reported as 1136 pg/ml/well. For the same compound, the VEGF [1, 8] was 1171 pg/mL, the “VEGF ELISA” value ([1]; 20 μM) was 1531 pg/ml/well and the VEGF ([1]; 20 μM, DMSO control 4197) was 1293 pg/mL. It also gave a viability at 5 µM (RPMI-7951 human melanoma; [11]) of 100%, a viability at 20 µM (RPMI-7951 human melanoma; [11]) of 100% and a viability at 5 µM (RPMI-7951 human melanoma; [12]) of 91%. For the same compound, the viability at 20 µM (RPMI-7951 human melanoma; [12]) was 99%.
With `[O-][S+](/C=C\c1ccccc1)/C=C/c1ccccc1` (racemic) [EF14, E,Z3,5-Bisbenzylidenesulfoxide] the VEGF ([1]; 20 μM, DMSO = 100) was 36% and the “Cell Viability” value (RPMI-7951 human melanoma; 20 μM) was 86%.
`O=C(C=Cc1ccccc1F)C=Cc1ccccc1F` [EF8, 1,5-Bis(2-fluorophenyl)penta-1,4-dien-3-one] was tested, and the activity at 5 µM [1] was 54%, the activity at 20 µM [1] was 1% and the “VEGF ELISA” value ([1]; 5 μM) was 2208 pg/ml/well. The VEGF [1, 8] was 2276 pg/mL, the “VEGF ELISA” value ([1]; 20 μM) was 319 pg/ml/well and the VEGF ([1]; 20 μM, DMSO control 4197) was 35 pg/mL. The viability at 5 µM (RPMI-7951 human melanoma; [11]) was 97%, the viability at 20 µM (RPMI-7951 human melanoma; [11]) was 8% and the viability at 5 µM (RPMI-7951 human melanoma; [12]) was 94%. The viability at 20 µM (RPMI-7951 human melanoma; [12]) was 54%.
In the case of `COc1ccc(CC2CCCC(Cc3ccc(OC)c(OC)c3)C2=O)cc1OC` (centres unmarked) [C], the “VEGF (% of DMSO)” value ([2]; 20 μM) is reported as “(110%)”, the VEGF [2, 9] is reported as 20559 ± 9224 pg/mL and the VEGF ([2]; Table 4, 20 μM, DMSO = 100) is reported as 110%. The VEGF [2, 5] was 20559 ± 9224 pg/mL, the “VEGF (% of DMSO)” value ([3]; 20 μM) was “(82%)” and the VEGF [3, 10] was 1734 ± 397 pg/mL. For the same compound, the VEGF ([3]; Table 4, 20 μM, DMSO = 100) was 82% and the VEGF [3, 5] was 1734 ± 397 pg/mL.
In the case of `O=C(C=Cc1ccc(F)c(F)c1)C=Cc1ccc(F)c(F)c1` [EF10, 1,5-Bis(3,4-difluorophenyl)penta-1,4-dien-3-one], the activity at 20 µM [1] is reported as 5%, the “VEGF ELISA” value ([1]; 20 μM) is reported as 257 pg/ml/well and the VEGF ([1]; 20 μM, DMSO control 4197) is reported as 217 pg/mL. It also gave a viability at 20 µM (RPMI-7951 human melanoma; [11]) of 8% and a viability at 20 µM (RPMI-7951 human melanoma; [12]) of 54%.
`O=S(=O)(NCc1ccccc1)NCc1ccccc1` [Compound A272] was tested, and the VEGF ([2]; Table 4, 20 μM, DMSO = 100) was 129%, the VEGF [2, 5] was 24155 ± 4635 pg/mL and the VEGF ([3]; Table 4, 20 μM, DMSO = 100) was 89%. For the same compound, the VEGF [3, 5] was 1864 ± 339 pg/mL.
With `COc1cc(CC2CCCC(Cc3ccc(O)c(OC)c3)C2=O)ccc1O` (centres unmarked) [Compound A231U] the TF ([4]; 5 μM, DMSO = 100) was 78%, the TF ([4]; 20 μM, DMSO = 100) was 85% and the TF [4, 6] was 5473 pg/mL. The TF [4, 7] was 5981 pg/mL, the VEGF ([1]; 20 μM, DMSO = 100) was 34% and the “VEGF (% of DMSO)” value ([2]; 20 μM) was “(149%)”. For the same compound, the VEGF [2, 9] was 27875 ± 4446 pg/mL, the VEGF ([2]; Table 4, 20 μM, DMSO = 100) was 149% and the VEGF [2, 5] was 27875 ± 4446 pg/mL. For the same compound, the “VEGF (% of DMSO)” value ([3]; 20 μM) was “(47%)”, the VEGF [3, 10] was 984 ± 349 pg/mL and the VEGF ([3]; Table 4, 20 μM, DMSO = 100) was 47%. The VEGF [3, 5] was 984 ± 349 pg/mL and the “Cell Viability” value (RPMI-7951 human melanoma; 20 μM) was 80%.
